In ChEMBL document CHEMBL5725721, “Pyridazinone-amides derivatives” (2017):

Molecular target: Interleukin-1 receptor-associated kinase 1 (Homo sapiens, UniProt P51617)
Experiment: IRAK1 Enzymatic Assay: IRAK1 is a human purified recombinant enzyme (His-TEV-IRAK1 (194-712)) In this assay, IRAK-1 hydrolyses ATP and autophosphorylates.Measurement of IRAK-1 inhibition is performed in streptavidin coated 384 well FlashPlate (PerkinElmer #SMP410A).His-TEV-IRAK-1 (15 ng/well), ATP (1 μM, [33P]ATP 0.25 μCi/well) and compounds in DMSO (range of concentrations from 20 μM to 1 nM) or controls (2% DMSO) are incubated for 3 hours at 30° C. in assay buffer: Hepes pH7.0 50 mM, Fatty acid-free BSA 0.1%, Dithiothreitol DTT 2 mM, MgCl2 10 mM, EGTA 0.5 mM, Triton-X-100 0.01%. Kinase reaction is stopped by addition of EDTA. Supernatant is discarded, plates are washed three times with 150 mM NaCl and radioactivity is then measured in a Microbeta Trilux reader.

Chain of Interleukin-1 receptor-associated kinase 1 (P51617 whole entry): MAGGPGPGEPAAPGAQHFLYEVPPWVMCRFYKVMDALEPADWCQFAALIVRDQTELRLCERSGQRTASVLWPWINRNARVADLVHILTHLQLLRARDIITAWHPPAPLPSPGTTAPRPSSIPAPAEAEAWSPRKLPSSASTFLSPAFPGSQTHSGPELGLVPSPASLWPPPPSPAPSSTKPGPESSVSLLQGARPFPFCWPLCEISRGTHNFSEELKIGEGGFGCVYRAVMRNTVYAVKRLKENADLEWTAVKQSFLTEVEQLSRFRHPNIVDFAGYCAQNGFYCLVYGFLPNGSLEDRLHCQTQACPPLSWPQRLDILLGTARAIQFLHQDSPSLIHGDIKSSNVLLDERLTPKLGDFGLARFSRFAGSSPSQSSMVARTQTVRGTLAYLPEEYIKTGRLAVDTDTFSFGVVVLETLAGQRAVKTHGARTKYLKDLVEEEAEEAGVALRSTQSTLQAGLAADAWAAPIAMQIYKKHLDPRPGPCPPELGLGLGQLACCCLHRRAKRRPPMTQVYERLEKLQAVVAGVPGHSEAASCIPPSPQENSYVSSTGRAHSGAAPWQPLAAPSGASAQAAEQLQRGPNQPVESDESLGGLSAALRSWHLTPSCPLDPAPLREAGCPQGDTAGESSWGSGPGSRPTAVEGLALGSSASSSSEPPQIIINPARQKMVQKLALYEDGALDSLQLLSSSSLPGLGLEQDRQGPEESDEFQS

- IC50: < 100 nM
SMILES: Cc1ccncc1-c1ccc(=O)n(Cc2cccc(C(=O)Nc3nc4ccccc4[nH]3)c2)n1
